Data reported in US10457811B2, “Surface-modified calcium oxide” (Kalkfabrik Netstal AG, priority 2012, dated 2019).
Where a name gives a salt, the structure may show the parent alone.

Test system: Erwinia amylovora strain 385 (Ea385)
Assay: Fire blight test on inoculated apple blossoms (Gala)
Assay type: in vivo
Conditions: 0.06% spray solution, 1 hour after inoculation, reduction of infestation after 6 days
Procedure: Finely pulverized CaO was coated with stearic acid (5% by weight of stearic acid relative to CaO) and was tested, as dust on apple blossoms, against fire blight. The standardized tests were carried out at an institute certified therefor (bio-ferm Research GmbH, DE). Apple blossoms of the Gala type were placed, with the pedicel, in a 10% saccharose solution and were incubated in a humid chamber. Inoculation/pathogen: Erwinia amylovora strain 385 (Ea385), as a bacterial suspension of fresh cultures with 10 million cells per milliliter, was sprayed onto the blossoms. Infested blossoms were treated, 1 hour after inoculation, with the coated CaO as dust (test series) or were subjected to the standard treatment (streptomycin sulfate 0.06% as spray solution; control and benchmark). Evaluation: The blossoms were investigated after 6 days, and analyzed in terms of the pathogen-typical features of an infection (slime spots). 39% of the blossoms without treatment were infested with fire blight. The reduction of the infestation by means of the corresponding treatment was evaluated, in terms of the efficacy of the treatment.

## [H]/N=C(/N)N[C@H]1[C@H](O)[C@@H](O)[C@H](O[C@@H]2O[C@@H](C)[C@](O)(C=O)[C@H]2O[C@@H]2O[C@@H](CO)[C@H](O)[C@@H](O)[C@@H]2NC)[C@@H](N/C(N)=N\[H])[C@@H]1O [Streptomycin sulfate, streptomycin sulfate]
  Efficacy of the treatment: 68%
